The values that follow come from patent US12668591B2, “1,2,4-oxadiazole derivatives as histone deacetylase 6 inhibitors” (Oryzon Genomics, S.A., priority 2017, dated 2026).

Experiment [1] concerns the target T1, HDAC6 (Homo sapiens, UniProt Q9UBN7).
T1 sequence (Q9UBN7 1-1215): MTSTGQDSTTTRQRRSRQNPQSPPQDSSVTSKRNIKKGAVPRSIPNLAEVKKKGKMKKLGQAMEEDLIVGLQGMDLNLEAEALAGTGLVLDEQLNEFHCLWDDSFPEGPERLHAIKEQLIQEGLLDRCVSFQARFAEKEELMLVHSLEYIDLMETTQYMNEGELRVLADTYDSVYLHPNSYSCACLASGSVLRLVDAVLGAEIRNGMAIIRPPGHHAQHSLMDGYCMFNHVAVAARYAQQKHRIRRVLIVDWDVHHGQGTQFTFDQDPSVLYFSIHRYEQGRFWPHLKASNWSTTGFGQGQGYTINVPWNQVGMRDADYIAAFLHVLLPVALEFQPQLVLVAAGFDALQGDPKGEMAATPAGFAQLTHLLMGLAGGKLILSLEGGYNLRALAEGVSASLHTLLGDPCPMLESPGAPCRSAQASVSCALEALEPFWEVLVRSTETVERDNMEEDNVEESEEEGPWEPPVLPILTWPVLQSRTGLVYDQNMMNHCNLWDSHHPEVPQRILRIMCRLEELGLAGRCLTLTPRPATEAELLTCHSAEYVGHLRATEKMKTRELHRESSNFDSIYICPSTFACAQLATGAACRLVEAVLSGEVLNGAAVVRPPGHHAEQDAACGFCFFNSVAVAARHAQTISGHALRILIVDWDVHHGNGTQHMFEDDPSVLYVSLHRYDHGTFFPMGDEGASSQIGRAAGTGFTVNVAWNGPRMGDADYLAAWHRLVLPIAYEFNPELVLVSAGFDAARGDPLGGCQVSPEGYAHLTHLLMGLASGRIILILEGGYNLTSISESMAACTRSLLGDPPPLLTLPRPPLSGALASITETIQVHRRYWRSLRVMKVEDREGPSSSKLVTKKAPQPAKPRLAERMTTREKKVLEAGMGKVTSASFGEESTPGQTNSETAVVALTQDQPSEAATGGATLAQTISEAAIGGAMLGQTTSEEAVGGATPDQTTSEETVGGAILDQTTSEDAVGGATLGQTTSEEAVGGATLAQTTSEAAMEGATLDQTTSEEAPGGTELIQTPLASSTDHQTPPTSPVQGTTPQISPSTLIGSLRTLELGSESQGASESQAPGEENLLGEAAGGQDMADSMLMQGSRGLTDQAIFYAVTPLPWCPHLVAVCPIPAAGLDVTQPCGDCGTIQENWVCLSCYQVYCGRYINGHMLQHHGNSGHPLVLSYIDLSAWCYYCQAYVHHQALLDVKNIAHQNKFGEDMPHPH
Description: In vitro cell-based assay: acetylation levels of Alpha-Tubulin by Western Blot in MOLP8 cells. Conditions: 18 h, acetyl-alpha-tubulin relative band intensity, ACY-1215 1 μM = 100%. Further details: endogenous in cells; host or cells: MOLP8. In a few lines: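 MOLP8 cells treated with compounds at 5 and 1 μM for 18 h at 37° C.; acetyl-alpha-tubulin measured by Western blot of RIPA extracts (7 μg protein). Bands normalized to total protein or beta-actin, expressed relative to ACY-1215 1 μM (100%), then classed.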
Background: A western blot detects proteins with antibodies after separation by electrophoresis.

Experiment [2] concerns the target T2, HDAC2 (Homo sapiens, UniProt Q92769).
T2 construct: (full length with C-terminal His-tag); His (C); purchased BPS Bioscience Inc. 50002
The experiment in a line: HDAC2 enzyme inhibition assay (fluorimetric). The experiment is classed as biochemical. Conditions: 1 μM compound; 3 h pre-incubation; recombinant full length HDAC2; read-out: HDAC2 % inh @ 1 μM. How it is done:
HDAC6 and HDAC2 Enzyme Inhibition Assay
A fluorimetric assay was used for testing the activity of compounds of the invention against HDAC6 and HDAC2.
The compounds were dissolved in DMSO. Serial dilutions were prepared in DMSO and then diluted 1:10 in HDAC assay buffer (Tris-buffered solution, BPS Bioscience Inc. #50031). 5 μl of the compound dilution was added to a 50 μl reaction so that the final concentration of DMSO was 1%.
The compounds were pre-incubated in duplicate at RT for 3 hours in a mixture containing HDAC assay buffer, 5 μg BSA and recombinant HDAC enzyme (see table above). The enzymatic reactions were initiated by the addition of a fluorogenic, acetylated peptide substrate based on a histone protein (BPS Bioscience Inc. #50037) to a final concentration of 10 μM. The enzymatic reaction proceeded for 30 minutes at 37° C. Then, 50 μl of 2× HDAC Developer, which contains peptidase activity and Trichostatin A (BPS Bioscience Inc. #50030) was added and the plate was incubated at RT for an additional 15 minutes. Fluorescence intensity was measured at an excitation of 360 nm and an emission of 460 nm using a Tecan Infinite M1000 microplate reader.
Trichostatin A (TSA, Selleckchem #S1045) was used as reference inhibitor.
The fluorescent intensity data were analyzed using the computer software Graphpad Prism (GraphPad Software, San Diego, CA). 100% activity was defined as the fluorescent intensity (Ft) in the absence of the compound. 0% activity was defined as the fluorescent intensity (Fb) in the absence of the enzyme. The percent activity in the presence of each compound was calculated according to the following equation: % activity=(F−Fb)/(Ft−Fb), where F=the fluorescent intensity in the presence of the compound.

For experiment [3], the target named is T1, HDAC6. Description: HDAC6 enzyme inhibition assay (fluorimetric). It counts as biochemical. The settings on record: 1 μM compound; 3 h pre-incubation; recombinant full length HDAC6; read-out: HDAC6 % inh @ 1 μM. In a few lines: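 Recombinant human HDAC6 or HDAC2 pre-incubated with compound 3 h at RT with BSA, 1% DMSO final; reaction started with fluorogenic acetylated histone peptide (10 μM final), 30 min at 37 °C, then developer with trichostatin A 15 min RT. Fluorescence Ex 360/Em 460 nm; % activity versus no-compound and no-enzyme controls.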

T2 sequence (Q92769 whole entry): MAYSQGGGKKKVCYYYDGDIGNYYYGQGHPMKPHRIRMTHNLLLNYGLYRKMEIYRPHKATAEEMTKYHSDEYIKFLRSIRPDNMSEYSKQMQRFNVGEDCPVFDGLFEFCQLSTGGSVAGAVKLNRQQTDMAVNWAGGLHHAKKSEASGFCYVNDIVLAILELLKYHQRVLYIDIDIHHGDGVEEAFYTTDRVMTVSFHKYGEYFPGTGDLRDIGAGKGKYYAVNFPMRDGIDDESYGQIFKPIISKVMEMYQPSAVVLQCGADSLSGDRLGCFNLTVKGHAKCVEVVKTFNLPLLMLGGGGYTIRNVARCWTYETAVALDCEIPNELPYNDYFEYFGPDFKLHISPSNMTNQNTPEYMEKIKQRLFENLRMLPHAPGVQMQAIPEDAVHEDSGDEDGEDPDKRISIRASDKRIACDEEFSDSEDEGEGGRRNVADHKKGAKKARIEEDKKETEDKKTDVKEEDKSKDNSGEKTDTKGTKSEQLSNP

`COCCn1ccc2cc(-c3cc(-c4noc(C(F)(F)F)n4)ccn3)ncc21` [Example 1x, 3-(2-(1-(2-Methoxyethyl)-1H-pyrrolo[2,3-c]pyridin-5-yl)pyridin-4-yl)-5-(trifluoromethyl)-1,2,4-oxadiazole]: the “Cellular activity @1 uM” value in experiment [1] is “++ (150-300)”. The “Cellular activity @5 uM” value in experiment [1] is reported as “+++ (>300)”. Moreover, the inhibition at 1 µM in experiment [2] amounted to 16%; in experiment [3] it was 95%.
For `O=C(CN1CCC(F)(F)CC1)Nc1ccnc(-c2cc(-c3noc(C(F)(F)F)n3)ccn2)c1` [Example 1y, 2-(4,4-Difluoropiperidin-1-yl)-N-(4′-(5-(trifluoromethyl)-1,2,4-oxadiazol-3-yl)-[2,2′-bipyridin]-4-yl)acetamide] the same measures were “+ (50-150)”, “++ (150-300)”, 27% and 92%.
On the same counts, the results for `FC1(F)CCN(CCNc2ccnc(-c3cc(-c4noc(C(F)(F)F)n4)ccn3)c2)CC1` [Example 1z, N-(2-(4,4-Difluoropiperidin-1-yl)ethyl)-4′-(5-(trifluoromethyl)-1,2,4-oxadiazol-3-yl)-[2,2′-bipyridin]-4-amine] are “+ (50-150)”, “++ (150-300)”, 46% and 97%.
For `CCCCn1cc(CN(C)C)c2cc(-c3cc(-c4noc(C(F)(F)F)n4)ccn3)ncc21` [Example 3, 1-(1-Butyl-5-(4-(5-(trifluoromethyl)-1,2,4-oxadiazol-3-yl)pyridin-2-yl)-1-pyrrolo[2,3-c]pyridin-3-yl)-N,N-dimethylmethanamine] the same measures were “+ (50-150)”, “+++ (>300)”, 30% and 90%.
For the molecule `FC(F)(F)c1nc(-c2ccnc(-c3n[nH]c4cccnc34)c2)no1` [Example 4, 3-(2-(1H-Pyrazolo[4,3-b]pyridin-3-yl)pyridin-4-yl)-5-(trifluoromethyl)-1,2,4-oxadiazole], in experiment [1], the “Cellular activity @1 uM” value was “++ (150-300)” and the “Cellular activity @5 uM” value is “+++ (>300)”. For the same molecule, the inhibition at 1 µM in experiment [2] was 25%. For the same molecule, in experiment [3], the inhibition at 1 µM is 96%.
On the same counts, the results for `O=C(Nc1ccnc(-c2cc(-c3noc(C(F)(F)F)n3)ccn2)c1)C1CCCNC1` (stereo not drawn) [Example 5, N-(4′-(5-(trifluoromethyl)-1,2,4-oxadiazol-3-yl)-[2,2′-bipyridin]-4-yl)piperidine-3-carboxamide] are “++ (150-300)”, “++ (150-300)”, 29% and 95%.
